From patent US12281363B2, “Methods for detecting antiviral-drug resistant virus” (Secretary of State for Health and Social Care, priority 2018, dated 2025)
Like-named read-outs stand apart in the source and are kept apart here.

Tested on: HSV-1
Test: Plaque reduction assay, HSV-1 clinical isolates on Vero cells
Assay type: cell-based
Conditions: Human alphaherpesvirus 1, Vero
How it was run: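 Susceptibility of HSV-1 isolates was read as percent plaque reduction versus no-drug control, counted on fixed, crystal-violet-stained sub-confluent Vero cells infected at 75 PFU/well beneath CMC. Intermediate resistance lies between cut-offs ACV <3/>40 μM, PCV <10/>40 μM, CDV <24/>30 μM, FOS <250/>400 μM.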

`Nc1nc2c(ncn2CCC(CO)CO)c(=O)[nH]1` [Penciclovir, penciclovir] showed an IC50 (72 h, isolate HPG053, HSV-1 pol L802R + A834S (2405T>G, 2500G>T), also TK R176W, read-out: Drug susceptibility (IC50 value)) greater than 160 µM, an IC50 (isolate HPG002, HSV-1 pol E992K (2974G>A), also TK insert (G) nt 430-436, pol A1169T, read-out: Drug susceptibility (IC50 value)) greater than 160 µM and an IC50 (isolate HPG002, HSV-1 pol E992K (2974G>A), also TK insert (G) nt 430-436, pol A1169T, read-out: Drug susceptibility Penciclovir (PCV)) greater than 40 µM. It also gave an IC50 (isolate HPG003, HSV-1 TK Y172S (515A>C), read-out: Drug susceptibility (IC50 value)) of 106 µM, an IC50 (isolate HPG003, HSV-1 TK Y172S (515A>C), read-out: Drug susceptibility Penciclovir (PCV)) greater than 40 µM and an IC50 (isolate HPG005, HSV-1 TK A37V (110C>T), read-out: Drug susceptibility (IC50 value)) of 5.19 µM. It also gave an IC50 (isolate HPG005, HSV-1 TK A37V (110C>T), read-out: Drug susceptibility Penciclovir (PCV)) of less than 10 µM, an IC50 (isolate HPG008, HSV-1 TK V204G (611T>G), read-out: Drug susceptibility (IC50 value)) greater than 160 µM and an IC50 (isolate HPG008, HSV-1 TK V204G (611T>G), read-out: Drug susceptibility Penciclovir (PCV)) greater than 40 µM. It also gave an IC50 (isolate HPG009, HSV-1 pol E992K (2974G>A), also pol A1169T, read-out: Drug susceptibility (IC50 value)) of 4.05 µM, an IC50 (isolate HPG009, HSV-1 pol E992K (2974G>A), also pol A1169T, read-out: Drug susceptibility Penciclovir (PCV)) of less than 10 µM and an IC50 (isolate HPG010, HSV-1 TK Q125* (373C>T), read-out: Drug susceptibility (IC50 value)) of 87.1 µM. It also gave an IC50 (isolate HPG010, HSV-1 TK Q125* (373C>T), read-out: Drug susceptibility Penciclovir (PCV)) greater than 40 µM, an IC50 (isolate HPG011, HSV-1 TK Q125* (373C>T), read-out: Drug susceptibility (IC50 value)) of 108 µM and an IC50 (isolate HPG011, HSV-1 TK Q125* (373C>T), read-out: Drug susceptibility Penciclovir (PCV)) greater than 40 µM. For the same compound, the IC50 (isolate HPG013, HSV-1 TK M121I (363G>A), read-out: Drug susceptibility (IC50 value)) was 105 µM, the IC50 (isolate HPG013, HSV-1 TK M121I (363G>A), read-out: Drug susceptibility Penciclovir (PCV)) was greater than 40 µM and the IC50 (isolate HPG013, HSV-1 pol D83A (248A>C), also TK M121I, pol A1169T, read-out: Drug susceptibility (IC50 value)) was 105 µM. For the same compound, the IC50 (isolate HPG013, HSV-1 pol D83A (248A>C), also TK M121I, pol A1169T, read-out: Drug susceptibility Penciclovir (PCV)) was greater than 40 µM, the IC50 (isolate HPG014, HSV-1 pol A1115T (3343G>A), read-out: Drug susceptibility (IC50 value)) was 5.66 µM and the IC50 (isolate HPG014, HSV-1 pol A1115T (3343G>A), read-out: Drug susceptibility Penciclovir (PCV)) was less than 10 µM. It also gave an IC50 (isolate HPG014, HSV-1 pol R993C (2977C>T), read-out: Drug susceptibility (IC50 value)) of 5.66 µM, an IC50 (isolate HPG014, HSV-1 pol R993C (2977C>T), read-out: Drug susceptibility Penciclovir (PCV)) of less than 10 µM and an IC50 (isolate HPG014, HSV-1 pol T54A (160A>G), read-out: Drug susceptibility (IC50 value)) of 5.66 µM. It also gave an IC50 (isolate HPG014, HSV-1 pol T54A (160A>G), read-out: Drug susceptibility Penciclovir (PCV)) of less than 10 µM, an IC50 (isolate HPG015, HSV-1 pol 966stop or F965_I966insF (2892_2893insT to 2895_2896insT), read-out: Drug susceptibility (IC50 value)) of 8.48 µM and an IC50 (isolate HPG015, HSV-1 pol 966stop or F965_I966insF (2892_2893insT to 2895_2896insT), read-out: Drug susceptibility Penciclovir (PCV)) of less than 10 µM. For the same compound, the IC50 (isolate HPG018, HSV-1 TK frameshift (881delC to 885delC), read-out: Drug susceptibility (IC50 value)) was 117 µM, the IC50 (isolate HPG018, HSV-1 TK frameshift (881delC to 885delC), read-out: Drug susceptibility Penciclovir (PCV)) was greater than 40 µM and the IC50 (isolate HPG018, HSV-1 pol P1199T (3595C>A), also TK deletion (C) nt 881-885, pol A1169T, read-out: Drug susceptibility (IC50 value)) was 117 µM. For the same compound, the IC50 (isolate HPG018, HSV-1 pol P1199T (3595C>A), also TK deletion (C) nt 881-885, pol A1169T, read-out: Drug susceptibility Penciclovir (PCV)) was greater than 40 µM, the IC50 (isolate HPG019, HSV-1 pol K750T (2249A>C), also TK deletion (G) nt 430-436, pol A1169T, read-out: Drug susceptibility (IC50 value)) was greater than 160 µM and the IC50 (isolate HPG019, HSV-1 pol K750T (2249A>C), also TK deletion (G) nt 430-436, pol A1169T, read-out: Drug susceptibility Penciclovir (PCV)) was greater than 40 µM. It also gave an IC50 (isolate HPG020, HSV-1 pol S911N (2732G>A), also pol A1169T, read-out: Drug susceptibility (IC50 value)) of 2.48 µM, an IC50 (isolate HPG020, HSV-1 pol S911N (2732G>A), also pol A1169T, read-out: Drug susceptibility Penciclovir (PCV)) of less than 10 µM and an IC50 (isolate HPG021, HSV-1 pol R681Q (2042G>A), also TK deletion (G) nt 430-436, read-out: Drug susceptibility (IC50 value)) greater than 160 µM. It also gave an IC50 (isolate HPG021, HSV-1 pol R681Q (2042G>A), also TK deletion (G) nt 430-436, read-out: Drug susceptibility Penciclovir (PCV)) greater than 40 µM, an IC50 (isolate HPG021, HSV-1 pol T839A (2515A>G), also TK deletion (G) nt 430-436, read-out: Drug susceptibility (IC50 value)) greater than 160 µM and an IC50 (isolate HPG021, HSV-1 pol T839A (2515A>G), also TK deletion (G) nt 430-436, read-out: Drug susceptibility Penciclovir (PCV)) greater than 40 µM. For the same compound, the IC50 (isolate HPG025, HSV-1 pol E850Q (2548G>C), also TK R216C, read-out: Drug susceptibility (IC50 value)) was 118 µM, the IC50 (isolate HPG025, HSV-1 pol E850Q (2548G>C), also TK R216C, read-out: Drug susceptibility Penciclovir (PCV)) was greater than 40 µM and the IC50 (isolate HPG026, HSV-1 pol E850Q (2548G>C), also TK R216C, pol A1169T, read-out: Drug susceptibility (IC50 value)) was 35 µM. It also gave an IC50 (isolate HPG026, HSV-1 pol E850Q (2548G>C), also TK R216C, pol A1169T, read-out: Drug susceptibility Penciclovir (PCV)) of 10 to 40 µM, an IC50 (isolate HPG027, HSV-1 TK V204G (611T>G), also pol S914L, A1169AT, read-out: Drug susceptibility (IC50 value)) greater than 160 µM and an IC50 (isolate HPG027, HSV-1 TK V204G (611T>G), also pol S914L, A1169AT, read-out: Drug susceptibility Penciclovir (PCV)) greater than 40 µM. For the same compound, the IC50 (isolate HPG027, HSV-1 pol S914L (2741C>T), also TK V204G, pol A1169T, read-out: Drug susceptibility (IC50 value)) was greater than 160 µM, the IC50 (isolate HPG027, HSV-1 pol S914L (2741C>T), also TK V204G, pol A1169T, read-out: Drug susceptibility Penciclovir (PCV)) was greater than 40 µM and the IC50 (isolate HPG029, HSV-1 TK Y172S (515A>C), read-out: Drug susceptibility (IC50 value)) was greater than 160 µM. It also gave an IC50 (isolate HPG029, HSV-1 TK Y172S (515A>C), read-out: Drug susceptibility Penciclovir (PCV)) greater than 40 µM, an IC50 (isolate HPG031, HSV-1 pol E1120A (3359A>C), also a TK resistance mutation (footnote e), read-out: Drug susceptibility (IC50 value)) of 156 µM and an IC50 (isolate HPG031, HSV-1 pol E1120A (3359A>C), also a TK resistance mutation (footnote e), read-out: Drug susceptibility Penciclovir (PCV)) greater than 40 µM. For the same compound, the IC50 (isolate HPG031, HSV-1 pol G139R (415G>C or 415G>A), also a TK resistance mutation (footnote e), read-out: Drug susceptibility (IC50 value)) was 156 µM, the IC50 (isolate HPG031, HSV-1 pol G139R (415G>C or 415G>A), also a TK resistance mutation (footnote e), read-out: Drug susceptibility Penciclovir (PCV)) was greater than 40 µM and the IC50 (isolate HPG032, HSV-1 TK 183* (437_438insA), read-out: Drug susceptibility (IC50 value)) was greater than 160 µM. It also gave an IC50 (isolate HPG032, HSV-1 TK 183* (437_438insA), read-out: Drug susceptibility Penciclovir (PCV)) greater than 40 µM.
